A word on the IC50: it is the point on the concentration scale where inhibition reaches its midpoint.

The first test deals with human P2X3 receptor (Homo sapiens (Human), UniProt P56373). Put plainly: Evaluation of human P2X3 receptor inhibitory activity (Fluo-3 calcium fluorescence, FDSS 3000, ATP stimulation).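 Further: stimulus was 50 nM ATP with fluorescence followed for 3 min, and the response per well was peak post-ATP fluorescence divided by the reading at measurement start.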 Conditions: C6BU-1 cells stably expressing human P2X3 receptor. The class given is cell-based.
Chain of human P2X3 receptor (P56373 whole entry): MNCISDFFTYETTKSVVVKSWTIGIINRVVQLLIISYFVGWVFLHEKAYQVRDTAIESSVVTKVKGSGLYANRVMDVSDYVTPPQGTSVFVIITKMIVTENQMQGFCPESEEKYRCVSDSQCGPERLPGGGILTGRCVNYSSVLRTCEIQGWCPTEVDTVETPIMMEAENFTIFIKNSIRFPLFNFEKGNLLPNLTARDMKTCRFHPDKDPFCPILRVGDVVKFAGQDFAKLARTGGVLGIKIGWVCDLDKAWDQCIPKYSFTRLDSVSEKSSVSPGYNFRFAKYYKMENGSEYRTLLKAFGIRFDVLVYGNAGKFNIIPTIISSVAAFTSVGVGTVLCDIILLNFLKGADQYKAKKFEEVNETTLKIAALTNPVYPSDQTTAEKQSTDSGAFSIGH
With `CCn1c(=O)[nH]/c(=N\c2ccc(Oc3ccc(C(N)=O)nc3)cc2)n(Cc2ccc(Cl)cc2)c1=O` [Compound I-2119], the half-inhibitory concentration (IC50) came to 1 nM. Turning to `O=c1[nH]/c(=N\c2ccc3nc(C4CC4)sc3c2)n(Cc2ccc(Cl)cc2)c(=O)n1CCO` [Compound I-2026], the 50% inhibitory concentration (IC50) stood at 22 nM. On the same count and under the same terms, for `CC(C)Oc1ccc(/N=c2\[nH]c(=O)n(C[C@@H]3CC(=O)N([C@H](C)c4ccccc4)C3)c(=O)n2Cc2ccc(Cl)cc2)cc1F` [Compound I-0662] the value was 22 nM. Consider `CO[C@@H](Cn1c(=O)[nH]/c(=N\c2ccc(OC(C)C)c(C)c2)n(Cc2ccc(Cl)cc2)c1=O)C(=O)O` [Compound I-0807, (S)-1-(4-chlorobenzyl)-6-(3-mehyl-4-isopropoxyphenylimino)-3-(2-hydroxycarbonyl-2-methoxyethyl)-1,3,5-triazinane-2,4-dion], for which the IC50 worked out at 13 nM. Turning to `COC(=O)CCCn1c(=O)[nH]/c(=N\c2ccc(Oc3ccncc3)cc2)n(Cc2ccc(Cl)cc2)c1=O` [Compound I-1245], the 50% inhibitory concentration (IC50) turned out to be 3 nM. As to `Cc1oc2ccc(/N=c3\[nH]c(=O)n(CCCO)c(=O)n3Cc3ccc(Cl)cc3)cc2c1C` [Compound I-2074], the half-inhibitory concentration (IC50) came out at 7 nM. As to `CC[C@H](C)Oc1ccc(/N=c2\[nH]c(=O)n(C[C@H](C)C(=O)OC)c(=O)n2Cc2ccc(Cl)cc2)cc1` [Compound I-0728], the IC50 worked out at 14 nM. On to `COc1cc(/N=c2\[nH]c(=O)n(CCC(=O)O)c(=O)n2Cc2ccc(C)cc2)ccc1OC(C)C` [Compound I-1264], for which the IC50 is 31 nM. Consider `Cc1ccc(Cn2c(=O)n(CCC(=O)O)c(=O)[nH]/c2=N\c2cccc(Cl)c2F)cc1` [Compound I-2054], for which the IC50 is 611 nM. As to `COC(=O)[C@H](C)[C@H](C)n1c(=O)[nH]/c(=N\c2ccc(OC3CCC3)c(C)c2)n(Cc2ccc(Cl)cc2)c1=O` [Compound I-1403], the IC50 amounted to 50 nM. As for `CCOC(=O)c1coc(Oc2ccc(/N=c3\[nH]c(=O)n(CC)c(=O)n3Cc3ccc(Cl)cc3)cc2)n1` [Compound I-2188], the half-maximal inhibitory concentration (IC50) was determined as 9 nM. Regarding `CCCc1ccc(/N=c2\[nH]c(=O)n(C[C@H](C)C(=O)OC)c(=O)n2Cc2ccc(C)cc2)cc1OC` [Compound I-1360], the concentration for half-maximal inhibition (IC50) was 32 nM. On the same count and under the same terms, next, `CCCc1nc2ccc(/N=c3\[nH]c(=O)n(C[C@H](C)C(=O)OC)c(=O)n3Cc3ccc(Cl)cc3)cc2o1` [Compound I-1327]: 73 nM. In the case of `Cc1cc(/N=c2\[nH]c(=O)n(CCCC(=O)N3CCOCC3)c(=O)n2Cc2ccc(Cl)cc2)ccc1OC(C)C` [Compound I-0787], the half-inhibitory concentration (IC50) was 24 nM. In the case of `CCOC(=O)CCCn1c(=O)[nH]/c(=N\c2ccc(Oc3ccncc3)cc2)n(Cc2ccc(C)cc2)c1=O` [Compound I-1238], the IC50 is 2 nM. Regarding `COC(=O)c1cccc(Oc2ccc(/N=c3\[nH]c(=O)n(C)c(=O)n3Cc3ccc(C)cc3)cc2)c1` [Compound I-2031], the 50% inhibitory concentration (IC50) amounted to 52 nM.

For `CC(C)Oc1ccc(/N=c2\[nH]c(=O)n(C(C)(C)C(=O)NC(CO)CO)c(=O)n2Cc2ccc(Cl)cc2)cc1Cl` [Compound I-0687], the IC50 is 12 nM.

As to `COC(=O)[C@@H](C)Cn1c(=O)[nH]/c(=N\c2ccc(OC(C)C)c(Cl)c2)n(Cc2ccc(C)cc2)c1=O` [Compound I-0593], the IC50 worked out at 4 nM. Same read-out and setting: for `CCOC(=O)CCn1c(=O)[nH]/c(=N\c2ccc(OC(C)C)c(OC)c2)n(Cc2ccc(C)cc2)c1=O` [Compound I-1246] the value was 6 nM; for `CCn1c(=O)[nH]/c(=N\c2ccc(Oc3ccc(F)c(C(=O)OC)c3)cc2)n(Cc2ccc(Cl)cc2)c1=O` [Compound I-2057], 21 nM; for `Cc1cc(Oc2ccc(/N=c3\[nH]c(=O)n(C[C@H](O)CO)c(=O)n3Cc3ccc(Cl)cc3)cc2)ccn1` [Compound I-1987], 7 nM.

With `CCOC(=O)/C(Cn1c(=O)[nH]/c(=N\c2ccc(OC(C)C)c(F)c2)n(Cc2ccc(Cl)cc2)c1=O)=N/OC` [Compound I-0735, 1-(4-chlorobenzyl)-6-(3-fluoro-4-isopropoxyphenylimino)-3-(2-ethoxycarbonyl-2-methoxyiminoethyl)-1,3,5-triazinane-2,4-dion], the IC50 was 7 nM.

Turning to `CC1(C)OCC(Cn2c(=O)[nH]/c(=N\c3ccc4nc(C5CC5)sc4c3)n(Cc3ccc(Cl)cc3)c2=O)CO1` [Compound I-1982], the IC50 was determined as 9 nM.

Still in this test, the particulars now being: C6BU-1 cells stably expressing human P2X3 receptor, Fluo-3 fluorescence, FDSS 3000.
`C[C@@H](C(=O)O)[C@H](C)n1c(=O)[nH]/c(=N\c2ccc3ncsc3c2)n(Cc2ccc(Cl)cc2)c1=O` [Compound I-1589]: the half-inhibitory concentration (IC50) is 158 nM. Take `CCc1ccc(Cn2c(=O)n(C[C@H](C)C(=O)O)c(=O)[nH]/c2=N\c2ccc(OC(C)C)cc2)cc1` [Compound I-1140]: the half-inhibitory concentration (IC50) is 44 nM. As for `CCOC(=O)CCn1c(=O)[nH]/c(=N\c2ccc(O[C@H](C)C(F)(F)F)cc2)n(Cc2ccc(C)cc2)c1=O` [Compound I-1021], the concentration for half-maximal inhibition (IC50) is 7 nM. As for `CCOC(=O)CCn1c(=O)[nH]/c(=N\c2ccc(OCCC(C)C)cc2)n(Cc2ccc(C)cc2)c1=O` [Compound I-1055], the concentration for half-maximal inhibition (IC50) was found to be 91 nM. With `Cc1ccc(Cn2c(=O)n(CCC(=O)O)c(=O)[nH]/c2=N\c2ccc(OC(C)C)c(C)c2)cc1` [Compound I-1158], the half-maximal inhibitory concentration (IC50) was 63 nM. Same read-out and setting: next, `CCc1oc2ccc(/N=c3\[nH]c(=O)n(C[C@H](O)CO)c(=O)n3Cc3ccc(Cl)cc3)cc2c1C` [Compound I-1624]: 8 nM. Take `CCOC(=O)CCn1c(=O)[nH]/c(=N\c2ccc(OC(C)C)c(F)c2)n(CC2C[C@H]3CC[C@@H]2C3)c1=O` (stereo partly shown) [Compound I-1860]: the 50% inhibitory concentration (IC50) came to 150 nM. On the same count and under the same terms, next, `CCOc1ccc(/N=c2\[nH]c(=O)n(CC(CO)CO)c(=O)n2Cc2ccc(Cl)cc2)cc1Cl` [Compound I-1906]: 6 nM; `C[C@@H](Oc1ccc(/N=c2\[nH]c(=O)n(CC(CO)CO)c(=O)n2Cc2ccc(Cl)cc2)cc1)C(F)(F)F` [Compound I-1882]: 16 nM. Consider `Cc1ccc(Cn2c(=O)n(CC3(C(=O)O)CC3)c(=O)[nH]/c2=N\c2ccc(OC(C)C)c(C)c2)cc1` [Compound I-0935], for which the IC50 came to 38 nM. For the compound `COC(=O)CC1(Cn2c(=O)[nH]/c(=N\c3ccc(OC(C)C)c(Cl)c3)n(Cc3ccc(Cl)cc3)c2=O)CC1` [Compound I-0977], the IC50 was 15 nM. As to `NC(=O)Cn1c(=O)[nH]/c(=N\c2ccc(Oc3ccc(O)nc3)cc2)n(Cc2ccc(Cl)cc2)c1=O` [Compound I-1900], the IC50 is 16 nM.

Consider `Cc1cc(Oc2ccc(/N=c3\[nH]c(=O)n(CCCO)c(=O)n3Cc3ccc(Cl)cc3)cc2)ccn1` [Compound I-1599], for which the IC50 is 5 nM. Take `C[C@@H](C(=O)O)[C@H](C)n1c(=O)[nH]/c(=N\c2ccc3c(c2)CC/C3=N\O)n(Cc2ccc(Cl)cc2)c1=O` [Compound I-1777]: the half-maximal inhibitory concentration (IC50) is 636 nM.

Still in this test, the particulars now being: human P2X3 receptor, Test Example 1.
`O=C(O)c1cc(Oc2ccc(/N=c3\[nH]c(=O)n(C4CCC4)c(=O)n3Cc3ccc(Cl)cc3)cc2)ccn1` [Compound I-2484]: the IC50 was determined as 8 nM. For the compound `NC(=O)Cn1c(=O)[nH]/c(=N\c2ccc(Oc3ncccn3)cc2)n(Cc2ccc(Cl)cc2)c1=O` [Compound I-2686], the IC50 turned out to be 36 nM. Still for that read-out and setting: next, `CC(CO)(CO)Cn1c(=O)[nH]/c(=N\c2ccc(Oc3cccc(F)n3)cc2)n(Cc2ccc(F)cc2)c1=O` [Compound I-2526]: 8 nM; `CCOC(=O)Cn1c(=O)[nH]/c(=N\c2ccc(Oc3ncns3)cc2)n(Cc2ccc(Cl)cc2)c1=O` [Compound I-2628]: 4 nM. For the compound `CCn1c(=O)[nH]/c(=N\c2ccc(Oc3cnc(C#N)nc3)cc2)n(Cc2ccc(Cl)cc2)c1=O` [Compound I-2281], the IC50 stood at 2 nM.

For the compound `Cc1ccc(Cn2c(=O)n(CCCO)c(=O)[nH]/c2=N\c2ccc(Oc3cccc(C#N)n3)cc2)cc1` [Compound I-2640], the IC50 is 2 nM. As to `Cc1cnc(Oc2ccc(/N=c3\[nH]c(=O)n(CC(CO)CO)c(=O)n3Cc3ccc(Cl)cc3)cc2)s1` [Compound I-2458], the IC50 turned out to be 3 nM. On the same count and under the same terms, next, `CCn1c(=O)[nH]/c(=N\c2ccc3nc(N(C)C)sc3c2)n(Cc2ccc(Cl)cc2)c1=O` [Compound I-2267]: 331 nM; `CCn1c(=O)[nH]/c(=N\c2ccc(Oc3ccnc(C(=O)O)c3)c(F)c2)n(Cc2ccc(Cl)cc2)c1=O` [Compound I-2462]: 7 nM. On the same count and under the same terms, next, `CCn1c(=O)[nH]/c(=N\c2ccc(Oc3ccc(C(=O)OC)nn3)cc2)n(C[C@H]2CC[C@H](C)CC2)c1=O` [Compound I-2701]: 1 nM; `Cc1cc(Oc2ccc(/N=c3\[nH]c(=O)n(CC(CO)CO)c(=O)n3Cc3ccc(Cl)cc3)cc2)no1` [Compound I-2353]: 8 nM. For the compound `CCn1c(=S)[nH]/c(=N\c2ccc(Oc3cncc(C(=O)O)c3)cc2)n(Cc2ccc(Cl)cc2)c1=O` [Compound I-2263], the 50% inhibitory concentration (IC50) came out at 4 nM.

With `NC(=O)Cn1c(=O)[nH]/c(=N\c2ccc(Oc3ccon3)cc2)n(Cc2ccc(Cl)cc2)c1=O` [Compound I-2512], the IC50 stood at 11 nM.

Turning to `Cn1c(=O)[nH]/c(=N\c2ccc(Oc3cc(C(=O)O)ccn3)cc2)n(Cc2ccc(Cl)cc2)c1=O` [Compound I-2391], the concentration for half-maximal inhibition (IC50) came out at 29 nM. For `CCOC(=O)Cn1c(=O)[nH]/c(=N\c2ccc(Oc3ccon3)cc2)n(Cc2ccc(Cl)cc2)c1=O` [Compound I-2627], the IC50 came to 7 nM.

For `CCn1c(=O)[nH]/c(=N\c2ccc(Oc3cnc(C#N)cn3)cc2)n(Cc2ccc(Cl)cc2)c1=O` [Compound I-2427], the concentration for half-maximal inhibition (IC50) came to 2 nM.

For `COC(=O)CCn1c(=O)[nH]/c(=N\c2ccc(Oc3cc(C#N)ccn3)cc2)n(Cc2ccc(C)cc2)c1=O` [Compound I-2660], the IC50 turned out to be 3 nM. With `O=c1[nH]/c(=N\c2ccc(Oc3ccon3)cc2)n(Cc2ccc(Cl)cc2)c(=O)n1C(CO)CO` [Compound I-2542], the half-maximal inhibitory concentration (IC50) was 186 nM.

For `Cn1c(=O)[nH]/c(=N\c2ccc(Oc3ncc(C(N)=O)s3)cc2)n(Cc2ccc(Cl)cc2)c1=O` [Compound I-2414], the IC50 was 3 nM. For the compound `Cc1cc(/N=c2\[nH]c(=O)n(CC3(C(=O)O)COC3)c(=O)n2Cc2ccc(Cl)cc2)ccc1OC(C)C` [Compound I-1481], the IC50 was found to be 39 nM.

As for `Cc1nsc(Oc2ccc(/N=c3\[nH]c(=O)n(CC(N)=O)c(=O)n3Cc3ccc(Cl)cc3)cc2)n1` [Compound I-2589], the IC50 turned out to be 6 nM.

The record behind these values is patent publication US9718790B2, “Triazine derivative and pharmaceutical composition having an analgesic activity comprising the same” (SHIONOGI & CO., LTD., priority 2010, dated 2017).
